Test results published in ChEMBL document CHEMBL5247587, “Discovery of benzimidazole substituted 1, 2, 4-oxadiazole compounds as novel anti-HBV agents with TLR8-agonistic activities” (Eur J Med Chem, 2022).
Active and inactive are the calls of the source. The rule behind the calls is not given here.

Experiments:
[1] = Cytotoxicity against human HepG2 2.2.15 cells assessed as reduction in cell viability incubated for 72 hrs by CCK8 assay; format: toxicity, cell-based
Hepatitis B virus [2] = assay: Antiviral activity against HBV infected in human HepG2 2.2.15 cells assessed as inhibition of viral DNA replication at 4 uM incubated for 6 days with every 2 days media replacement by RT-PCR analysis relative to control; format: functional; set-up: scale not given: the % may be the effect or the level left; settings: time 6 day
[3] = Selectivity index, ratio of CC50 for human HepG2 2.2.15 cells to IC50 for HBV infected in human HepG2 2.2.15 cells; format: toxicity, cell-based; settings: read-out: Ratio CC50/IC50
Hepatitis B virus [4] = assay: Antiviral activity against HBV infected in human HepG2 2.2.15 cells assessed as inhibition of viral DNA replication incubated for 6 days with every 2 days media replacement by RT-PCR analysis; format: functional, organism-based
[5] = target: Nuclear factor NF-kappa-B complex (Homo sapiens) (UniProt Q00653+P19838+Q04206); assay: Activation of NF-kappaB (unknown origin) transfected in HEK293T cells at 0.4 to 10 uM incubated for 48 hrs by Dual-luciferase reporter gene assay; format: cell-based; settings: dose 0.4-10 µM
[6] = target: T1, Toll-like receptor 8 (Homo sapiens) (UniProt Q9NR97); assay: Agonist activity at human TLR8 transfected in HEK293T cells co-transfected with NF-kappaB and renilla assessed as increase in TLR8-induced NF-kappaB activity at 0.4 to 10 uM incubated for 48 hrs by Dual-luciferase reporter gene assay; format: cell-based; settings: filed as agonist, dose 0.4-10 µM
T1 sequence (whole entry): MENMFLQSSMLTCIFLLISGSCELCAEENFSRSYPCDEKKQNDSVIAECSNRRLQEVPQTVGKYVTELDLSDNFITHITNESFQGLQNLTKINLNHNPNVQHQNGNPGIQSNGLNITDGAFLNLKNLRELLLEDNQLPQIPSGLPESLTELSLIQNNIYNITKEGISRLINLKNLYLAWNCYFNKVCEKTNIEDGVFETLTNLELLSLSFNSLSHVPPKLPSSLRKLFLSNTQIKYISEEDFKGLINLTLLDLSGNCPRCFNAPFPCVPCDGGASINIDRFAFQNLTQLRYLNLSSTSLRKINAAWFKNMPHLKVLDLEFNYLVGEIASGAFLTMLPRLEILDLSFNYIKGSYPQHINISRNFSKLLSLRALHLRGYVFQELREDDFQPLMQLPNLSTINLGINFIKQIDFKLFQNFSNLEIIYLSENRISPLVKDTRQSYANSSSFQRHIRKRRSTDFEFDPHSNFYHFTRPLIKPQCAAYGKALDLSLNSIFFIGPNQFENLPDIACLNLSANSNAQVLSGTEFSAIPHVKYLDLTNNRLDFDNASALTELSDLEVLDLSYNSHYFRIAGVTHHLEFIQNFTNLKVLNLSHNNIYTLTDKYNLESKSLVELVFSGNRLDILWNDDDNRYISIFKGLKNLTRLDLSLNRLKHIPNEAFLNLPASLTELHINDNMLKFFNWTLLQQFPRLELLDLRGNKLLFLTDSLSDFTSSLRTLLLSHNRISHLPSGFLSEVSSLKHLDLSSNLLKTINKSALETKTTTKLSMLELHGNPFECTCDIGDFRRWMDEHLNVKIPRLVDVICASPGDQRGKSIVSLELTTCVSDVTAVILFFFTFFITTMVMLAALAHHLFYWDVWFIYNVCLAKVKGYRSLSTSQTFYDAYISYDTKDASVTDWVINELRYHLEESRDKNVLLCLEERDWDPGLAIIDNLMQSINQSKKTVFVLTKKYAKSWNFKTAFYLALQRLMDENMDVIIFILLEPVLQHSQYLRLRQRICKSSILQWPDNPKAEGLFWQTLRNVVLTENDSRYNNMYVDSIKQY

Hepatitis B virus [7] = assay: Potency index, ratio of LAM IC50 to test compound IC50 for HBV infected in ETV/LAM-resistant human HepG2.A64 cells assessed as inhibition of viral DNA replication; format: functional
[8] = target: T1, Toll-like receptor 8 (Homo sapiens); assay: Agonist activity at TLR8 in human PBMC cells assessed as increase in IL-12 level incubated for 24 hrs by ELISA; format: cell-based; settings: filed as agonist, dose 0.4-10 µM
[9] = Cytotoxicity against human HepG2.A64 cells assessed as reduction in cell viability incubated for 72 hrs by CCK8 assay; format: toxicity, cell-based
[10] = Selectivity index, ratio of CC50 for human HepG2.A64 cells to IC50 for HBV infected in ETV/LAM-resistant human HepG2.A64 cells; format: toxicity; settings: read-out: Ratio CC50/IC50
[11] = target: T1, Toll-like receptor 8 (Homo sapiens); assay: Agonist activity at TLR8 in human PBMC cells assessed as increase in TNF-alpha level incubated for 24 hrs by ELISA; format: cell-based; settings: filed as agonist, dose 0.4-10 µM
Hepatitis B virus [12] = assay: Antiviral activity against HBV infected in ETV/LAM-resistant human HepG2.A64 cells assessed as inhibition of viral DNA replication incubated for 72 hrs by RT-PCR analysis; format: functional, organism-based; settings: HepG2.A64, 72 h

Chain of Nuclear factor NF-kappa-B complex (Homo sapiens) (P19838 whole entry, looked up): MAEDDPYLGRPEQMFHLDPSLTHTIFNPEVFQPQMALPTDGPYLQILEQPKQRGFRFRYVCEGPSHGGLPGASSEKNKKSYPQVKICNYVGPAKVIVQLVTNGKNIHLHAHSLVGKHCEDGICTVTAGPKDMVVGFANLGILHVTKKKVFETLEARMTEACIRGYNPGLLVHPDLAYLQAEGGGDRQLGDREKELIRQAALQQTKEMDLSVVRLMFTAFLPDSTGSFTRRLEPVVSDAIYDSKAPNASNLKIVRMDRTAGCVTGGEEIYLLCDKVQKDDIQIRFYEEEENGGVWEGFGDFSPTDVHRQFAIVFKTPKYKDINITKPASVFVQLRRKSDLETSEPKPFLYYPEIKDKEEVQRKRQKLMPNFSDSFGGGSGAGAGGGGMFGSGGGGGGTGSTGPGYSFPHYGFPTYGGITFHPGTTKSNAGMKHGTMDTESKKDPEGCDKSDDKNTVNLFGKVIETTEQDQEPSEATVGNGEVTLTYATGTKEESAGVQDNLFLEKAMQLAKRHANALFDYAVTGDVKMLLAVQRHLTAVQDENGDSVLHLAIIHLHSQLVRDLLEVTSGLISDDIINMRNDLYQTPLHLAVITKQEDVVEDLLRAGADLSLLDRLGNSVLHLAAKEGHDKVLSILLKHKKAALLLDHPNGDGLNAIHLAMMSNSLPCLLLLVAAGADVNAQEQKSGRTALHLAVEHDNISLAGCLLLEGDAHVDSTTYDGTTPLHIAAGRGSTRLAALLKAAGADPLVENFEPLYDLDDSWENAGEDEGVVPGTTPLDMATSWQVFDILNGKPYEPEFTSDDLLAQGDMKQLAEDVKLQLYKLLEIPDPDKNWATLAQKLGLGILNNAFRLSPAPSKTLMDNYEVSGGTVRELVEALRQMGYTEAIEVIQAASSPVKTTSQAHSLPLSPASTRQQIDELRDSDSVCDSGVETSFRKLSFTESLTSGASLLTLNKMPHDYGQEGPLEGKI
Chain of Nuclear factor NF-kappa-B complex (Homo sapiens) (Q00653 whole entry, looked up): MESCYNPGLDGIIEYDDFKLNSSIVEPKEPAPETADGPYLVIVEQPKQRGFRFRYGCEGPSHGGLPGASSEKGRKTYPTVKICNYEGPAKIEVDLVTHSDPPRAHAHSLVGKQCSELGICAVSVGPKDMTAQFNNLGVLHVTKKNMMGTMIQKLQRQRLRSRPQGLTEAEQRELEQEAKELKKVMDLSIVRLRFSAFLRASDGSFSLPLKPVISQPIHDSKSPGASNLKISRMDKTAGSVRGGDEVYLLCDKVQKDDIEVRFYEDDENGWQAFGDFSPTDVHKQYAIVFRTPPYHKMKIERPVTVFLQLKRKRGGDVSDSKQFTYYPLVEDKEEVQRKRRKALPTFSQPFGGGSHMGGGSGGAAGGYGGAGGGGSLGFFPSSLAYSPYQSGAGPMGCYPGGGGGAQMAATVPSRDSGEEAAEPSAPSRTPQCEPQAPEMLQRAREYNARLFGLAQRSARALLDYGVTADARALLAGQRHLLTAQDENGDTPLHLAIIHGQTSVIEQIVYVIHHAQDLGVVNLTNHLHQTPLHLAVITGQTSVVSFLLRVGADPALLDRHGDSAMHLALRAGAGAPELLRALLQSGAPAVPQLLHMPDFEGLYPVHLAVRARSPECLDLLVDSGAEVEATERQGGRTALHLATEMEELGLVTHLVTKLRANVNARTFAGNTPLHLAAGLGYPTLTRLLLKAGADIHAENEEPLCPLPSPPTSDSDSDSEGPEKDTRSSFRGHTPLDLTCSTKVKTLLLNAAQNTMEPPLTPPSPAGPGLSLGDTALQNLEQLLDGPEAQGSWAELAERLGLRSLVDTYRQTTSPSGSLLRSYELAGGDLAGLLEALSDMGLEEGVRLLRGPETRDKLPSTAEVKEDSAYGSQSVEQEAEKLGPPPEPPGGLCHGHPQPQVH
Chain of Nuclear factor NF-kappa-B complex (Homo sapiens) (Q04206 whole entry, looked up): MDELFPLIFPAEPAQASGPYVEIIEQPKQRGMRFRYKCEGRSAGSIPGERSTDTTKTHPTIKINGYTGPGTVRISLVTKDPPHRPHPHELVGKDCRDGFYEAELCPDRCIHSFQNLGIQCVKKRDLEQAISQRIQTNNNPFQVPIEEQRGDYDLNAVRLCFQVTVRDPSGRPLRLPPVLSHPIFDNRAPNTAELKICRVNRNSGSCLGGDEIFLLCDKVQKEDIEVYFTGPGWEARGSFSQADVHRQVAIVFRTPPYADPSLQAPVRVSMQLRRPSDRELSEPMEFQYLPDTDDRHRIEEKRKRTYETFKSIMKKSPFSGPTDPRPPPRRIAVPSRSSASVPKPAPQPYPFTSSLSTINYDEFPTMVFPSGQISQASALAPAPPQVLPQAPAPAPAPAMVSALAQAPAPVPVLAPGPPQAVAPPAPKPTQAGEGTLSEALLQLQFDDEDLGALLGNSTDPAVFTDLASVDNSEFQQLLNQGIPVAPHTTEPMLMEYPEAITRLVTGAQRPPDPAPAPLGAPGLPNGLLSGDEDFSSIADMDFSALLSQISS

SMILES | CC50 at 72 h [1] [µM] | Activity (Hepatitis B virus [2]) [%] | selectivity ratio [3] | IC50 (Hepatitis B virus [4]) [µM] | other results
O=C(CCn1cnc2cc(-c3noc(CCC4CCCC4)n3)ccc21)NC1CCCC1 | > 20 | 21.36 |  |  | 
Cc1ccccc1C(=O)NCCn1cnc2cc(-c3noc(CCC4CCCC4)n3)ccc21 | > 20 | 6.59 |  |  | 
O=C(NCCn1cnc2cc(-c3noc(CCC4CCCC4)n3)ccc21)c1ccccc1C(F)(F)F | > 20 | 46.02 | > 5.14 | 3.89 | 
Cc1ccc(C(=O)NCCn2cnc3cc(-c4noc(CCC5CCCC5)n4)ccc32)cc1 | > 20 | 54.11 | > 13.1 | 1.53 | 
O=C(CCn1cnc2cc(-c3noc(CCC4CCCCC4)n3)ccc21)N1CCCC1 | > 20 | 0.74 |  |  | 
O=C(NCCn1cnc2cc(-c3noc(CCC4CCCC4)n3)ccc21)c1cccc(C(F)(F)F)c1 | > 20 | 84.47 | > 37.7 | 0.53 | Activity [5]: inactive; Activity [6]: Active; Ratio IC50 (Hepatitis B virus [7]): 150; Activity [8]: Dose-Dependent Effect; CC50 at 72 h [9]: > 20 µM; selectivity ratio [10]: > 45.5; Activity [11]: Dose-Dependent Effect; IC50 (Hepatitis B virus [12]): 0.44 µM
O=C(CCn1cnc2cc(-c3noc(CCc4ccccc4)n3)ccc21)N1CCCC1 | > 20 | 24.46 |  |  | 
O=C(NCCn1cnc2cc(-c3noc(CCC4CCCC4)n3)ccc21)c1ccc(F)cc1 | > 20 | 65.06 | > 15 | 1.33 | 
O=C(NCCn1cnc2cc(-c3noc(CCC4CCCC4)n3)ccc21)c1cccc(I)c1 | > 20 | 68.86 | > 12 | 1.67 | 
O=C(NCCn1cnc2cc(-c3noc(CCC4CCCC4)n3)ccc21)c1ccccc1 | > 20 | 28.98 |  |  | 
O=C(NCCn1cnc2cc(-c3noc(CCC4CCCC4)n3)ccc21)c1ccc(Br)cc1 | > 20 | 38.03 |  |  | 
O=C(CCn1cnc2cc(-c3noc(CCC4CCCC4)n3)ccc21)N1CCCC1 | > 20 | 48.57 | > 3.69 | 5.17 | 
O=C(NCCn1cnc2cc(-c3noc(CCC4CCCC4)n3)ccc21)c1ccc(I)cc1 | > 20 | 54.76 | > 7.6 | 2.63 | 
O=C(NCCn1cnc2cc(-c3noc(CCC4CCCC4)n3)ccc21)c1cccc(Cl)c1 | > 20 | 82.78 | > 23.5 | 0.85 | 
O=C(CCn1cnc2cc(-c3noc(CCC4CCCC4)n3)ccc21)NC1CCCCC1 | > 20 | 2.64 |  |  | 
Cc1ccccc1NC(=O)CCn1cnc2cc(-c3noc(CCC4CCCC4)n3)ccc21 | > 20 | 7.43 |  |  | 

SMILES | CC50 at 72 h [1] [µM] | Activity (Hepatitis B virus [2]) [%] | selectivity ratio [3] | IC50 (Hepatitis B virus [4]) [µM] | other results
O=C(NCCn1cnc2cc(-c3noc(CCC4CCCC4)n3)ccc21)c1ccc(C(F)(F)F)cc1 | > 20 | 63.99 | > 29 | 0.69 | Ratio IC50 (Hepatitis B virus [7]): 150; CC50 at 72 h [9]: > 20 µM; selectivity ratio [10]: > 32.8; IC50 (Hepatitis B virus [12]): 0.61 µM
O=C(NCCn1cnc2cc(-c3noc(CCC4CCCC4)n3)ccc21)c1ccccc1F | > 20 | 54.72 | > 18.7 | 1.07 | 
O=C(NCCn1cnc2cc(-c3noc(CCC4CCCC4)n3)ccc21)c1ccc(Cl)cc1 | > 20 | 63.41 | > 10.2 | 1.96 | 
Nc1ccn([C@@H]2CS[C@H](CO)O2)c(=O)n1 [LAMIVUDINE] | > 20 | 84.42 | > 1000 | < 0.1 | CC50 at 72 h [9]: > 100 µM; IC50 (Hepatitis B virus [12]): > 100 µM
COc1ccccc1C(=O)NCCn1cnc2cc(-c3noc(CCC4CCCC4)n3)ccc21 | > 20 | 76.09 | > 12.9 | 1.55 | 
O=C(NCCn1cnc2cc(-c3noc(CCC4CCCC4)n3)ccc21)c1cccc(F)c1 | > 20 | 45.92 |  |  | 
O=C(NCCn1cnc2cc(-c3noc(CCC4CCCC4)n3)ccc21)c1ccccc1I | > 20 | 30.88 |  |  | 
COc1cccc(C(=O)NCCn2cnc3cc(-c4noc(CCC5CCCC5)n4)ccc32)c1 | > 20 | 70.78 | > 12.5 | 1.6 | 
O=C(CCn1cnc2cc(-c3noc(CCC4CCCC4)n3)ccc21)N1CCCCC1 | > 20 | 53.4 | > 3.17 | 6.3 | 
O=C(NCCn1cnc2cc(-c3noc(CCC4CCCC4)n3)ccc21)c1cccc(Br)c1 | > 20 | 64.39 | > 6.02 | 3.32 | 
O=C(NCCn1cnc2cc(-c3noc(CCC4CCCC4)n3)ccc21)c1ccccc1Cl | > 20 | 10.63 |  |  | 
O=C(CCn1cnc2cc(-c3noc(CCC4CCCC4)n3)ccc21)N1CCOCC1 | > 20 | 0.02 |  |  | 
O=C(NCCn1cnc2cc(-c3noc(CCC4CCCC4)n3)ccc21)c1ccccc1Br | > 20 | 53.47 | > 12.4 | 1.61 | 
COc1ccc(C(=O)NCCn2cnc3cc(-c4noc(CCC5CCCC5)n4)ccc32)cc1 | > 20 | 73.8 | > 7.58 | 2.64 | 
Cc1cccc(C(=O)NCCn2cnc3cc(-c4noc(CCC5CCCC5)n4)ccc32)c1 | > 20 | 9.58 |  |  | 
